Reference: patent publication US20260137703A1, “2-AMINO-PYRIDO[2,3-D]PYRIMIDIN-7(8H)-ONE AND 7-AMINO-1-PYRIMIDO[4,5-D]PYRIMIDIN-2(1 H)-ONE DERIVATIVES AS EGFR INHIBITORS FOR THE TREATMENT OF CANCER” (Cancer Research Technology Limited, priority 2022, published 2026)
Like-named read-outs stand apart in the source and are kept apart here. Each block holds one compound with its values, some of them ahead of it.

Tests used:
[1] = biological target: CtermHisTag-mEGFR Wild type (Homo sapiens, UniProt P00533)
Chain of CtermHisTag-mEGFR Wild type (P00533 whole entry): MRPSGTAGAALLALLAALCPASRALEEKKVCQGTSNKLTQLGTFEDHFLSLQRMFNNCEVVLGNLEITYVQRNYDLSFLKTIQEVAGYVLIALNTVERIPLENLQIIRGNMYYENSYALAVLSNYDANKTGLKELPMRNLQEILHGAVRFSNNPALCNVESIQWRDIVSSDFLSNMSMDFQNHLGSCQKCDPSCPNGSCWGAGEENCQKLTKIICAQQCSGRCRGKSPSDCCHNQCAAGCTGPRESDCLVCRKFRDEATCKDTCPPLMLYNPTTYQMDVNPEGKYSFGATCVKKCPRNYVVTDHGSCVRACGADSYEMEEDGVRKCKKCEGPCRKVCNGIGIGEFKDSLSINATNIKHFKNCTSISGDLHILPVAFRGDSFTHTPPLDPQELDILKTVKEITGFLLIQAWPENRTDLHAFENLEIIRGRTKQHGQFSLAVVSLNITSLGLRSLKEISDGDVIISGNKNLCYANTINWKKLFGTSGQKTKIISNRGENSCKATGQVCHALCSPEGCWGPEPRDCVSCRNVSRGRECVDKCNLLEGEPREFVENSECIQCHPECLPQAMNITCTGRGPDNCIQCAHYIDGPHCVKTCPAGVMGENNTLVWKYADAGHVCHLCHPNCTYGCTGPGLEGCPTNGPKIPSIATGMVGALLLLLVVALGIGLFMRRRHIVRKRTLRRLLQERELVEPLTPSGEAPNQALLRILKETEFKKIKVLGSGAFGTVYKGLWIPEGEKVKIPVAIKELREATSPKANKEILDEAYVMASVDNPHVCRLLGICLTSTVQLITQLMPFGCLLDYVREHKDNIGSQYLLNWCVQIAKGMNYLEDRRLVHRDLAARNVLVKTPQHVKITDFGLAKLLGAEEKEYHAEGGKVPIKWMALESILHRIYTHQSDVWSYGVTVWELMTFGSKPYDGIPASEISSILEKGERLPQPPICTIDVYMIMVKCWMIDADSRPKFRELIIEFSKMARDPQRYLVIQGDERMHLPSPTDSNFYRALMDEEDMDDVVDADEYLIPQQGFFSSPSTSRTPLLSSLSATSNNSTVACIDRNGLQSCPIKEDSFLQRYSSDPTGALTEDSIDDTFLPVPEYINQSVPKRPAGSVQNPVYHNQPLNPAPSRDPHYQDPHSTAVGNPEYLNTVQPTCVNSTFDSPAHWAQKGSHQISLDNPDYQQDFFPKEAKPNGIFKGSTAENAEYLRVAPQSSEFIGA

[2] = biological target: T1, Phospho-EGFR (Tyr1068) in H1975 cells (Homo sapiens, UniProt P00533, L858R/T790M); test: HTRF pEGFR/total EGFR in H1975 cells; type: cell-based; settings: ratio pEGFR/total EGFR, compound 3 hours
T1 construct: host or cells: H1975
T1 sequence (P00533 25-1210 T790M/L858R): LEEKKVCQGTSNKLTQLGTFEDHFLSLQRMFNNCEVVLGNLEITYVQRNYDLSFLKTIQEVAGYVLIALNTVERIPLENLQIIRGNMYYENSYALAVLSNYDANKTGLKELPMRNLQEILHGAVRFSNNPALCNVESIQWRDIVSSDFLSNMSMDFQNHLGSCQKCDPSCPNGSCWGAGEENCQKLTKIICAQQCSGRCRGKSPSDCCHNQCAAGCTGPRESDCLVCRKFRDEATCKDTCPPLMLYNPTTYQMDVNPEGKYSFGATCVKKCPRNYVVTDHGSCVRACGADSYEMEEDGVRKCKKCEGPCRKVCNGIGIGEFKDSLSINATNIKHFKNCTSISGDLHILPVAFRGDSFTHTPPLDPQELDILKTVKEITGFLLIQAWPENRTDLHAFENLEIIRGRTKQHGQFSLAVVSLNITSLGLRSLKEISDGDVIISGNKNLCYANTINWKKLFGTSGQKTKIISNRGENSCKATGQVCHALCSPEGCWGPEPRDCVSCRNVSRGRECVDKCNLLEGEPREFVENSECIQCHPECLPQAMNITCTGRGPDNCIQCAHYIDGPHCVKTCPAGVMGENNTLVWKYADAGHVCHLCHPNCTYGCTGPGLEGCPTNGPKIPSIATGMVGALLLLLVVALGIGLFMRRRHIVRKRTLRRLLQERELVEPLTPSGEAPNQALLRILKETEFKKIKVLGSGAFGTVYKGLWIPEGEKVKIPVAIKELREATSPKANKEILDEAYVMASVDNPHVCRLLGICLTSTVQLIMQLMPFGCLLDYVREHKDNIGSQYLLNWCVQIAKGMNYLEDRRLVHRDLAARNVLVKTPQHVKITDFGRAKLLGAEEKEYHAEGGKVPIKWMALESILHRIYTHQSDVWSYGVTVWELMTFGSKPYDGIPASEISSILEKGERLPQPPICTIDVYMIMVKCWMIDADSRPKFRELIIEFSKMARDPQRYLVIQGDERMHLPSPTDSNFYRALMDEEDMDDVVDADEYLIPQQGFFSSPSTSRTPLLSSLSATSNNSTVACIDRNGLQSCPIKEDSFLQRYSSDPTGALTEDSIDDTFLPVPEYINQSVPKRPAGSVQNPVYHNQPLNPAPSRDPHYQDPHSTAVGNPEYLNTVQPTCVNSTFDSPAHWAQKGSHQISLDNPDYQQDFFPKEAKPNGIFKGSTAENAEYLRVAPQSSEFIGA
Summary of the method: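 H1975 cells (EGFR L858R/T790M) treated 3 h with compound in 0.1% DMSO, in duplicate, 24 h after plating. Lysates assayed by HTRF for pEGFR (Tyr1068) and total EGFR at 665/620 nm; values are pEGFR/total EGFR ratio as percent of 0 μM control.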

[3] = biological target: T2, Phospho-EGFR (Tyr1068) in H1975 C797S cells (CRISPR-edited EGFR C797S) (Homo sapiens, UniProt P00533, C797S/L858R/T790M); test: HTRF pEGFR/total EGFR in H1975 C797S cells; type: cell-based; settings: ratio pEGFR/total EGFR, compound 3 hours
T2 construct: host or cells: H1975 C797S (CRISPR-edited)
T2 sequence (P00533 25-1210 T790M/C797S/L858R): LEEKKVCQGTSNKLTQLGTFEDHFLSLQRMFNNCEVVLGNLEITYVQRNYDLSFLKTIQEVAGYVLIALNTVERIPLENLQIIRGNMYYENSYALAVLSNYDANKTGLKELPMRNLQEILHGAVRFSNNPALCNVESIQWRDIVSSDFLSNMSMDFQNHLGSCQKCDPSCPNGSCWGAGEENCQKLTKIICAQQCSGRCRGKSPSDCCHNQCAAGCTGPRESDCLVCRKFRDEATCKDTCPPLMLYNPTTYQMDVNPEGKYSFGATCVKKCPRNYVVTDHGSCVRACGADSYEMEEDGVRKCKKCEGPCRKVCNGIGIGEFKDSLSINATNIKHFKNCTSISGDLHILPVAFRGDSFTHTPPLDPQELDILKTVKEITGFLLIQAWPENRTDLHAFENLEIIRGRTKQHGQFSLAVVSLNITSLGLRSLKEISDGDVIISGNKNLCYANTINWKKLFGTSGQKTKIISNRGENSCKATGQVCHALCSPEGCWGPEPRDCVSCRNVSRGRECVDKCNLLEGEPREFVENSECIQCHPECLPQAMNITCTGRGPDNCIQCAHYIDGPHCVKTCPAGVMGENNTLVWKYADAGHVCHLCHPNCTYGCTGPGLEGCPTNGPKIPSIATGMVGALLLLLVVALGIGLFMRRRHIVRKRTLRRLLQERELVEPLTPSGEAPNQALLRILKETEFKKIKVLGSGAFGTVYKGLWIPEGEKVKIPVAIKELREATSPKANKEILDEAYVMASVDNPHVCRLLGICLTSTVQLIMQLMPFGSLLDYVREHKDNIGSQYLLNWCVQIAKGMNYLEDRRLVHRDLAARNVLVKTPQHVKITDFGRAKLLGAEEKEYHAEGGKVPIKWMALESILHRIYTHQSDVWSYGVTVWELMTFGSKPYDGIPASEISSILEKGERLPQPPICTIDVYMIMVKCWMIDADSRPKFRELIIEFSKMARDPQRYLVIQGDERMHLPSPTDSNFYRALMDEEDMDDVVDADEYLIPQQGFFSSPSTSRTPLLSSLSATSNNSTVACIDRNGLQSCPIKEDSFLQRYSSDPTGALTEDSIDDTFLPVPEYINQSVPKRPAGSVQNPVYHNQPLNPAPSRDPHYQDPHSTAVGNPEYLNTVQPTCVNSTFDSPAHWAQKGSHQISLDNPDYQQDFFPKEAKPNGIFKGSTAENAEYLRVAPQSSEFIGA
Summary of the method: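 Adhered H1975 C797S cells got compound for 3 h in duplicate at 0.1% DMSO final, then were lysed 30 min at room temperature. HTRF kits quantified phospho-EGFR (Tyr1068) and total EGFR (665/620 nm); results are pEGFR/total EGFR ratio as percent of 0 μM control.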

Compound: Cc1c(C#C[Si](C(C)C)(C(C)C)C(C)C)c2cnc3nc2n(c1=O)CC=CCOc1cccc(c1)N3
ring closure, isolated yield (from Cc1c(C#C[Si](C(C)C)(C(C)C)C(C)C)c2cnc(Nc3cccc(O)c3)nc2n(C/C=C\CO)c1=O, ether bond, 13-membered ring, PPh3/DIAD, THF, 180.0 mM): 52%

Compound: 1^6-methyl-3^4-(4-methylpiperazin-1-yl)-1^5-((triisopropylsilyl)ethynyl)-1^7,1^8-dihydro-4-oxa-2-aza-1(2,8)-pyrido[2,3-d]pyrimidina-3(1,3)-benzenacyclooctaphan-1^7-one
ring closure, isolated yield (other bond, 13-membered ring, PPh3/DIAD, THF, 107.0 mM): 56%

Compound: 3^4-(4-(2-Methoxyethyl)piperazin-1-yl)-1^5-((triisopropylsilyl)ethynyl)-1^7,1^8-dihydro-4-oxa-2-aza-1(2,8)-pyrido[2,3-d]pyrimidina-3(1,3)-benzenacyclooctaphan-1^7-one
ring closure, isolated yield (other bond, 13-membered ring, PPh3/DEAD, THF, 83.2 mM): 49%

Compound: 3^4-(4-Methylpiperazin-1-yl)-1^5-((triisopropylsilyl)ethynyl)-1^7,1^8-dihydro-2,6-diaza-1(2,8)-pyrido[2,3-d]pyrimidina-3(1,3)-benzenacyclooctaphane-1^7,7-dione
ring closure, isolated yield (other bond, 13-membered ring, PPh3/DEAD, DCM, 130.0 mM): 38%

Compound: 3^4-(4-Methylpiperazin-1-yl)-1^5-((triisopropylsilyl)ethynyl)-1^7,1^8-dihydro-4,7-dioxa-2-aza-1(2,8)-pyrido[2,3-d]pyrimidina-3(1,3)-benzenacyclononaphan-1^7-one
ring closure, isolated yield (other bond, 14-membered ring, PPh3/DEAD, THF, 134.0 mM): 29%

Compound: 3^4-(4-Methylpiperazin-1-yl)-1^5-((triisopropylsilyl)ethynyl)-1^7,1^8-dihydro-4-oxa-2-aza-1(2, 8)-pyrido[2,3-d]pyrimidina-3(1,3)-benzenacyclodecaphan-1^7-one
ring closure, isolated yield (other bond, 15-membered ring, PPh3/DEAD, THF, 158.0 mM): 41%

Compound: 3^4-(4-Methylpiperazin-1-yl)-1^5-[2-(triisopropylsilyl)ethynyl]-1^7,1^8-dihydro-2,4-diaza-1(2,8)-pyrido[2,3-d]pyrimidine-3(1,3)-benzenacyclooctaphane-1^7,5-dione
ring closure, isolated yield (other bond, 13-membered ring, PPh3/DEAD, THF, 162.0 mM): 62%

Compound: 3^4-(4-methylpiperazin-1-yl)-1^5-((triisopropylsilyl)ethynyl)-1^7,1^8-dihydro-2,5-diaza-1(2,8)-pyrido[2,3-d]pyrimidina-3(1,3)-benzenacyclooctaphane-1^7,4-dione
ring closure, isolated yield (other bond, 13-membered ring, PPh3/DIAD, THF, 43.7 mM): 20%

Compound: 3^4-(4-methylpiperazin-1-yl)-1^5-((triisopropylsilyl)ethynyl)-1^7,1^8-dihydro-6-oxa-2-aza-1(2, 8)-pyrido[2,3-d]pyrimidina-3(1,3)-benzenacyclooctaphan-1^7-one
ring closure, isolated yield (other bond, 13-membered ring, PPh3/DEAD, THF, 82.8 mM): 77%

Compound: 4-Methyl-3^4-(4-methylpiperazin-1-yl)-1^5-((triisopropylsilyl)ethynyl)-1^7,1^8-dihydro-2,4-diaza-1(2,8)-pyrido[2,3-d]pyrimidina-3(1,3)-benzenacyclooctaphane-1^7,5-dione
ring closure, isolated yield (other bond, 13-membered ring, PPh3/DIAD, THF, 158.0 mM): 38%

Compound: 5-Methyl-3^4-(4-methylpiperazin-1-yl)-1^5-((triisopropylsilyl)ethynyl)-1^7,1^8-dihydro-2,5-diaza-1(2,8)-pyrido[2,3-d]pyrimidina-3(1,3)-benzenacyclooctaphane-1^7,6-dione
ring closure, isolated yield (other bond, 13-membered ring, PPh3/DEAD, THF, 158.0 mM): 75%

IC50 [1]: > 10000 nM | IC50 [2]: > 3000 nM
Compound: C=Cc1c(-c2ccccc2Cl)c(=O)n(C)c2nc(Nc3ccc(N4CCN(C)CC4)cc3OC)ncc12 [Example 171, 6-(2-chlorophenyl)-5-ethenyl-2-{[2-methoxy-4-(4-methylpiperazin-1-yl)phenyl]amino}-8-methylpyrido[2,3-d]pyrimidin-7-one]

IC50 [3]: > 3000 nM | IC50 [1]: < 1000 nM | IC50 [2]: > 3000 nM
Compound: C#Cc1cc(=O)n(C2CCCC2)c2nc(Nc3cccc(N(C)[C@H]4C[C@@H](CS(C)(=O)=O)C4)c3)ncc12 [Example 203]

Compound: (5^1S,5^3R)-1^4-(4-Methylpiperazin-1-yl)-3^5-((triisopropylsilyl)ethynyl)-3^7,3^8-dihydro-7-oxa-2-aza-3(2,8)-pyrido[2,3-d]pyrimidina-1(1,3)-benzena-5(1,3)-cyclopentanacycloheptaphan-3^7-one
ring closure, isolated yield (other bond, 14-membered ring, PPh3/DIAD, THF, 93.0 mM): 17%
